{"source": "patent US20120164731A1", "about": "“METHOD OF INDUCING DIFFERENTIATION FROM PLURIPOTENT STEM CELLS TO SKELETAL MUSCLE PROGENITOR CELLS” (KYOTO UNIVERSITY, priority 2009, published 2012)", "molecules": {"B1": {"name": "bone morphogenetic protein 4 (protein, UniProt P12644 293-408, looked up)", "Bone morphogenetic protein 4": "SPKHHSQRARKKNKNCRRHSLYVDFSDVGWNDWIVAPPGYQAFYCHGDCPFPLADHLNSTNHAIVQTLVNSVNSSIPKACCVPTELSAISMLYLDEYDKVVLKNYQEMVVEGCGCR", "notes": "growth factor (Peprotech) added to the differentiation medium for the first 3 days"}, "B2": {"name": "Activin A (protein, UniProt P08476 311-426, looked up)", "Inhibin beta A chain": "GLECDGKVNICCKKQFFVSFKDIGWNDWIIAPSGYHANYCEGECPSHIAGTSGSSLSFHSTVINHYRMRGHSPFANLKSCCVPTKLRPMSMLYYDDGQNIIKKDIQNMIVEECGCS", "modifications": "Inhibin beta A chain", "notes": "as for B1"}}, "key": {"[1]": {"tested_on": "mouse iPS cells (iPS-Nanog-20D-17)", "assay": "Induction of differentiation from iPS cells to primitive streak mesodermal cells (PDGFRα FACS, viable cell count)", "format": "cell-based", "conditions": "for cell proliferation / survival: IGF-1 and/or HGF added or not", "description": "Differentiation of iPS cells was induced using a serum-free basal medium for differentiation induction prepared by adding 0.2% bovine serum albumin (Sigma), 100 μM 2-mercaptoethanol (Invitrogen), 50 mU/L penicillin and 50 μg/L streptomycin to S-Clone SF-03 (Sanko Junyaku Co., Ltd.). Various growth factors were added to the medium, and their effects were examined. Eventually, the following growth factors were used at the concentrations indicated.\n(§1) Undifferentiated cells were detached from the dish as in the passage subculture, and twice washed with the differentiation induction basal medium. 10 ml of the culture medium for the first 3 days was added to a 10 cm cell culture dish coated with collagen type IV (Nitta Gelatin), and 500,000 undifferentiated iPS cells were seeded thereinto. The cells were cultured in an incubator adjusted to 37° C., 5% CO2, and 100% humidity for 3 days, after which the medium was replaced with the culture medium for the last 3 days. The cells were thus differentiation-induced for a total of 6 days, from which skeletal muscle progenitor cells were separated by the method of cell separation described below, and these were used in the subsequent experiments.\n(§2) The mouse iPS cells induced by the above-described differentiation induction method were divided into a population of skeletal muscle progenitor cells and a population of other cells using FACS Aria (Becton Dickinson). The cells were stained using antibodies as described previously [Sakurai, H. et al., Stem Cells 24, 575-586 (2006)]. Three different rat monoclonal antibodies were used: APA5 (anti-PDGFRα), ECCD2 (anti-ECD) and SM/C-2.6. The former two were supplied by Dr. Nishikawa [Sakurai, H. et al., Stem Cells 24, 575-586 (2006)], and the remaining one by Dr. Yamamoto [Fukada, S. et al., Exp Cell Res., 296, 245-255 (2004)]. The APA5 and SM/C-2.6 were conjugated with biotin (PIERCE) and fluorescently labeled using streptavidin-APC as a secondary antibody. The ECCD2 was directly conjugating with Alexa488 (Molecular Probes) by a conventional method and fluorescently labeled. The fluorescently labeled cells were suspended in Hanks' balanced salt solution (Invitrogen) supplemented with 1% bovine serum albumin to obtain a cell density of 5,000,000 cells per mL, fluorescence was examined and analyzed using FACS Aria, and the PDGFRα-positive fraction was separated and recovered.\nWith this in mind, a first experiment was performed to determine whether the addition of growth factors other than BMP4 supports the survival of iPS cells and promotes their differentiation into primitive streak mesodermal cells (hereinafter sometimes simply referred to as “mesoderm”). Activin A, IGF-1, and HGF were examined as growth factor candidates (FIG. 1A, italicized). With Activin A added to all culture conditions examined, 4 conditions were analyzed: “neither IGF-1 nor HGF was added”, “IGF-1 was added alone”, “HGF was added alone”, and “both were added”. The iPS cell used was iPS-Nanog-20D-17. […] However, the viable cell count was about 3 times higher in the IGF-1-alone addition group than in the IGF-1-HGF-concurrent addition group (FIG. 1B, right).\nThe influences of the concentrations of BMP4 and Activin A in the induction of differentiation from iPS cells to primitive streak mesodermal cells were examined. Specifically, of the addition conditions of Activin A 10 ng/ml, BMP4 10 ng/ml, and IGF-1 10 ng/ml determined in the previous section, the concentration of Activin A alone (FIG. 2A) or BMP4 alone (FIG. 2B) was changed, and the expression of PDGFRα was evaluated by FACS."}, "iPS-DsRed": {"tested_on": "iPS-DsRed", "assay": "Induction of differentiation from primitive streak mesodermal cells to skeletal muscle progenitor cells (SM/C-2.6 FACS, Myf5 RT-PCR)", "format": "cell-based, mouse", "description": "as §1, §2\nRNA was extracted from the recovered cells using Sepasol Reagent (Nacalai Tesque). cDNA was synthesized from the RNA using the SuperScriptll reverse transcription kit (Invitrogen). DNA was amplified by 25-35 cycles of PCR reaction using the ExTaq PCR reagent kit (Takara Bio) and the PTC200 thermal cycler (DNA engine), and analyzed by electrophoresis. The PCR primers shown below were used.\nTo find a method for effectively inducing the differentiation, the present inventors investigated the potential of the Wnt signal inducer LiCl, used alone or in combination with other growth factors, for inducing the differentiation of iPS cells into skeletal muscle progenitor cells. Selected growth factor candidates, i.e., Sonic Hedgehog (Shh) and IGF-1, were added to the differentiation medium for the last 3 days, and their influences on differentiation into skeletal muscle progenitor cells were examined (FIG. 3A). The iPS cell used was iPS-DsRed. The degree of differentiation into skeletal muscle progenitor cells was analyzed with the expression of SM/C-2.6 as an index. Also analyzed was the expression of Myf5, which is a skeletal muscle-specific transcription factor in the RNA as a whole. SM/C-2.6 is a marker capable of specifically staining satellite cells, which are skeletal muscle stem cells [Fukada, S. et al., Exp Cell Res., 296, 245-255 (2004)], and has been reported to enable the separation of skeletal muscle progenitor cells from a mouse ES cell induction system [Chang, H. et al., Generation of transplantable, functional satellite-like cells from mouse embryonic stem cells. Faseb J., 23: 1907-1919 (2009)].\nFirst, the influence of the addition of Shh was determined. iPS-DsRed was induced to differentiate as illustrated in FIG. 3A. During the last 3 days, the cells were cultured in the presence of LiCl, alone or with the addition of Shh 20 ng/ml; the cells were induced to differentiate for a total of 6 days, stained with SM/C-2.6, and evaluated."}, "iPS cells": {"tested_on": "iPS cells", "assay": "Timing of LiCl addition, appearance efficiency of PDGFRα-positive fraction by FACS", "format": "cell-based, mouse", "conditions": "continuous addition of LiCl from day 1 or day 2 from start of differentiation induction", "description": "A method of increasing the appearance efficiency of skeletal muscle progenitor cells derived from iPS cells was studied. Specifically, LiCl, which was added on day 3 from the start of the differentiation induction in the previous Examples, was added from a different day. Samples with addition of LiCl from day 0, 1, 2, 3 or 4 from the start of the differentiation induction were analyzed for the appearance efficiency of the PDGFRα-positive fraction by FACS analysis. As a result, not less than 60% of the induction efficiency could be reproduced by continuous addition of LiCl from day 1 or day 2 from the start of the differentiation induction (FIG. 8B). This method could also be reproduced with other iPS cell clone (iPS-Ng-20D-17)."}, "[2]": {"conditions": "iPS-Nanog-20D-17, Activin A added to all conditions"}, "[3]": {"conditions": "IGF-1 experiment, IGF-1-free or IGF-1 added, irrespective of concentration"}, "[4]": {"conditions": "Shh experiment, LiCl alone or with Shh during last 3 days"}, "[5]": {"conditions": "induction of skeletal muscle progenitor cells, last 3 days"}}, "data": [{"molecule": "HGF: growth factor candidate examined with Activin A and IGF-1", "values": [{"measurement": "cell proliferation / survival", "setting": "[1]; [2]", "value": "little cells surviving"}]}, {"molecule": "[Cl-].[Li+]", "note": "[LiCl, lithium chloride, reference compound]", "values": [{"measurement": "percentage of SM/C-2.6-positive cells", "setting": "iPS-DsRed; IGF-1-free group, last 3 days", "value": 11.9, "unit": "%"}, {"measurement": "expression of Myf5 (RT-PCR)", "setting": "iPS-DsRed; [3]", "value": "no expression of Myf5 was observed"}, {"measurement": "expression of Myf5 (RT-PCR)", "setting": "iPS-DsRed; [4]", "value": "not observed at all"}, {"measurement": "percentage of SM/C-2.6-positive cells", "setting": "iPS-DsRed; Shh-free group: LiCl alone during last 3 days, total 6 days", "value": 28.5, "unit": "%"}, {"measurement": "induction efficiency (PDGFRα-positive fraction)", "setting": "iPS cells", "value": "not less than 60%"}]}, {"molecule": "sonic hedgehog [Shh]", "values": [{"measurement": "percentage of SM/C-2.6-positive cells", "setting": "iPS-DsRed; Shh 20 ng/ml addition group, with LiCl, last 3 days, total 6 days", "value": 38.8, "unit": "%"}, {"measurement": "expression of Myf5 (RT-PCR)", "setting": "iPS-DsRed; [4]", "value": "Myf5 was expressed"}, {"measurement": "optimal concentration", "setting": "iPS-DsRed; [5]", "value": "about 20 ng/ml"}]}, {"molecule": "insulin-like growth factor-1 [IGF-1]", "values": [{"measurement": "differentiation rate (mesoderm differentiation, expression of PDGFRα as an index)", "setting": "[1]; iPS-Nanog-20D-17, Activin A added to all conditions, with BMP4, starting 3 days", "value": 61.5, "unit": "%"}, {"measurement": "cell proliferation / survival", "setting": "[1]; [2]", "value": "Cell proliferation was observed"}, {"measurement": "viable cell count, IGF-1-alone addition group versus IGF-1-HGF-concurrent addition group", "setting": "[1]; iPS-Nanog-20D-17, with Activin A", "value": "about 3 times"}, {"measurement": "percentage of SM/C-2.6-positive cells", "setting": "iPS-DsRed; IGF-1 5 ng/ml addition group, last 3 days", "value": 16.8, "unit": "%"}, {"measurement": "expression of Myf5 (RT-PCR)", "setting": "iPS-DsRed; [3]", "value": "the expression of Myf5 was evident"}, {"measurement": "effective concentration", "setting": "iPS-DsRed; [5]", "value": "≥ 5", "unit": "ng/mL"}]}, {"molecule": "B1", "values": [{"measurement": "viable cell count when BMP4 concentration decreased", "setting": "[1]; Activin A 10 ng/ml, IGF-1 10 ng/ml", "value": "remained nearly constant"}, {"measurement": "percentage of PDGFRα-positive cells", "setting": "[1]; BMP4 10 ng/ml, Activin A 10 ng/ml, IGF-1 10 ng/ml", "value": 44.7, "unit": "%"}, {"measurement": "percentage of PDGFRα-positive cells", "setting": "[1]; BMP4 at all concentrations of 5 ng/ml or less, Activin A 10 ng/ml, IGF-1 10 ng/ml", "value": "25-28%"}]}, {"molecule": "B2", "values": [{"measurement": "percentage of PDGFRα-positive cells induced", "setting": "[1]; Activin A at 5 ng/ml or more, BMP4 10 ng/ml, IGF-1 10 ng/ml", "value": "exceeded 40%"}, {"measurement": "viable cell count for Activin A 0 ng/ml compared with 10 ng/ml", "setting": "[1]; BMP4 10 ng/ml, IGF-1 10 ng/ml", "value": "about one-sixth level"}, {"measurement": "concentrations at which more effective", "setting": "[1]; based on PDGFRα-positive percentage and viable cell count", "value": "5 to 10", "unit": "ng/mL"}, {"measurement": "cell proliferation / survival", "setting": "[1]; [2]", "value": "some cells survived"}]}]}
